Where two headings read alike, the source gives them in different places.
What was measured:
[1] = molecular target: T1, µ-opioid receptor (MOR), rat (Rattus norvegicus, UniProt P33535); format: binding; settings: read-out: Ki ± S.E.M. (nM) / [^3H]DAMGO (μ) ^1
T1 construct: gene Oprm1; native receptor in rat brain membrane homogenate or rat vas deferens

[2] = molecular target: T1, µ-opioid receptor (MOR), rat; assay: […]GTPγS binding, rat brain membranes; format: biochemical; settings: read-out: EC50 ± S.E.M.; agonist; pH 7.4, 30 °C, 60 min, 30 µM GDP; mixed opioid receptors in tissue, assigned to MOR by the authors
MOR, mouse vas deferens = molecular target: T2, MOR, mouse vas deferens (Mus musculus, UniProt P42866); settings: read-out: EC50 ± S.E.M. (nM) / MVD
T2 construct: gene Oprm1; native receptor in isolated mouse vas deferens

[3] = molecular target: T3, κ-opioid receptor (KOR), guinea pig (Cavia porcellus, UniProt P41144); assay: [3H]U-69593 competition, guinea pig brain membranes; format: binding; settings: 50 mM Tris-HCl pH 7.4, 30 °C, 30 min; unreliable (partial displacement)
T3 construct: gene OPRK1; native receptor in guinea pig brain membrane homogenate
Excerpt: [3H]U-69593 competition, guinea pig brain membranes on κ-opioid receptor (KOR), guinea pig

[4] = molecular target: T4, δ-opioid receptor (DOR), rat (Rattus norvegicus, UniProt P33533); assay: [3H]Ile5,6-deltorphin II competition, rat brain membranes; format: binding; settings: read-out: Ki ± S.E.M. (nM) / [^3H]IleDelt II (δ) ^1; 50 mM Tris-HCl pH 7.4, 35 °C, 45 min; Cheng-Prusoff
T4 construct: gene Oprd1; native receptor in rat brain membrane homogenate

[5] = molecular target: T4, δ-opioid receptor (DOR), rat; assay: as above; format: binding; settings: 50 mM Tris-HCl pH 7.4, 35 °C, 45 min; unreliable (incomplete displacement)
[6] = molecular target: T4, δ-opioid receptor (DOR), rat; assay: […]GTPγS binding, rat brain membranes; format: biochemical; settings: agonist; pH 7.4, 30 °C, 60 min, 30 µM GDP

COc1ccc2c3c1O[C@H]1[C@@H](OS(=O)(=O)O)C=C[C@@]4(OC)[C@@H](C2)N(C)CC[C@]314 [14-methoxycodeine-6-O-sulfate] gave a Ki [1] of 3.37 ± 0.48 nM, an EC50 [2] of 301 ± 197 nM and an EC50 (MOR, mouse vas deferens) of 239 ± 6.15 nM. The “Ki ± S.E.M. (nM) / [^3H]U-69593 (κ) ^2” value [3] was 245.57 ± 215.01 nM and the Ki [4] was 346 ± 133 nM.
With COc1ccc2c3c1O[C@H]1[C@@H](OS(=O)(=O)O)C=C[C@H]4[C@@H](C2)N(C)CC[C@@]341 [codeine-6-O-sulfate] the Ki ([1]; 50 mM Tris-HCl pH 7.4, 35 °C, 45 min, Cheng-Prusoff) was 96.9 ± 20.3 nM, the EC50 (MOR, mouse vas deferens; agonist, Mg2+-free Krebs, 31 °C, MOR assigned by naloxone Ke) was over 1000 nM and the “Ki ± S.E.M. (nM) / [^3H]IleDelt II (δ) ^1” value [5] was 968.28 ± 471.38 nM.
With CC(C)[C@H](NC(=O)[C@H](CCC(=O)O)NC(=O)[C@H](Cc1ccccc1)NC(=O)[C@@H](C)NC(=O)[C@@H](N)Cc1ccc(O)cc1)C(=O)N[C@H](C(=O)NCC(N)=O)C(C)C [deltorphin II] the EC50 [6] was 44.4 ± 23.5 nM.

From article PMC7144380 (Molecules, 2020)
